From patent US20200348288A1, “A method and a system for analysis of cardiomyocyte function” (IMEC VZW, priority 2017, published 2020)

Tested on: cardiomyocytes
Assay: analysis of cardiomyocyte function (microelectrode array recording with simultaneous reflective lensfree imaging) before and after administering of a drug
Type: cell-based
Details: after vs before administering of drug, FIG. 5
Text: During or in-between measurements, a drug may be administered 210 to the cardiomyocytes in order to allow predicting of adverse effects on electrical and/or contractile function of the cardiomyocytes.
After drug treatment, analysis 212 on the cardiomyocytes is again performed. The electrical and/or contractile representations before and after drug treatment may be compared in order to predict adverse effects.
The method further comprises recording 304 electrical signals from the cardiomyocytes. The electrical signals may be acquired by the microelectrode array 112, which may be arranged in contact with the cardiomyocytes on the substrate 110. The electrical signals may further be transferred to readout circuitry 120 recording electrical signals received from the microelectrode array 112.
The method further comprises simultaneously with the recording 304, acquiring 306 a sequence of images. Each image may be acquired by detecting light wavefront information in reflective lensfree imaging and reconstructing the image of the cardiomyocytes based on the detected light wavefront information.
The method further comprises determining 308 an electrical representation relating to an intracellular and/or extracellular action potential, and/or an impedimetric electrical image of a cardiomyocyte based on the recorded electrical signals. […]

Cc1ccc2c(c1)C(=O)C1(O)CCN(c3ccccc3)C1=N2 (centres unmarked) [blebbistatin]
contractile function of the cardiomyocytes (contractile representation): severe adverse effects
electrical function of the cardiomyocytes (electrical representation): not affected
